Molecules are shown by their SMILES. Like-named read-outs stand apart in the source and are kept apart here.

One data set has as its system MDA-MB-468 tumor. In words: Focal radiation therapy of tumor after GT3 administration. In kind it is in vivo. To be noted: 10 mg/kg GT3 prior to 11 Gy focal irradiation. The text has this: Though GT3 accumulation in the tumor is moderate, there is possibility that GT3 in the tumor might protect tumor during radiation therapy. On the contrary, there are several reports that tocotrienols suppress the proliferation of a wide variety of tumor cells in culture, such as MDA-MB-435, MCF-7, PC-3, LnCaP and DLD-1. Animal studies also have been shown that tocotrienol suppresses the growth of tumors such as 7,12-dimethylbenz(a)anthracene induced mammary tumor, HepG2, and PC-3. To address the question that GT3 protects tumors from irradiation, focal radiation therapy was performed to evaluate the effect of GT3 in the tumor when 10 mg/kg GT3 was administered prior to 11 Gy focal irradiation.

The subject of data set [1] is peripheral blood cells (WBC, lymphocytes, platelets). In words: Blood cell recovery after sub-lethal total body irradiation (4 Gy). In kind it is in vivo, C57/BL6 mice. The protocol: GT3-Lipo treated 24 h before TBI, GT3-Lipo treated 24 h after TBI, BMT only and no treatment.
FIGS. 3A and 3B a plot of complete blood count (CBC) data showing white blood cell (WBC) recovery after total body irradiation (TBI) (4 Gy) (FIG. 3A), and a plot of lymphocyte recovery after TBI (4 Gy) (FIG. 3B). C57BL6 mice were divided into 4 groups (5 mice per group). (Filled circle) GT3-Lipo treated 24 h before TBI. (Open square) BMT-Lipo treated 24 h before TBI. (Filled square) GT3-Lipo treated 24 h after TBI. (Open circle) No treatment. 10 mg/kg/mice GT3 were treated via i.v. and blood was collected by retro-orbital bleeding on day 0, 1, 4, 7, 14, 21, 43, 57 and 99.
White blood cells (WBC), lymphocytes, and neutrophils decreased to less than 10% of baseline counts with a nadir at day 1-4, post irradiation. […] Recovery of GT3 treated groups reached 100% at day 43. For the untreated group, WBC and lymphocyte counts recovered about 60% at day 43 and WBC and lymphocyte counts never recovered to normal level until day 99. Neutrophil counts decreased to nadir on day 4 for GT3 treated and untreated groups. […] recovered on day 7 and remained relatively the same counts until day 99. Platelet counts increased on day 1 and decreased to nadir on day 14. Platelet counts were recovered to normal level at day 43 and remained the same level until day 99 in all groups.
6- to 8-week-old C57/BL6 mice (Jackson Lab., Bar Harbor, Me.) were used for bone marrow protection from total body irradiation studies. 10 mg/kg GT3 liposomes (6% mol) were administered via i.v. 24 h pre- and post-total body irradiation (4 Gy, […], dose rate=82 cGy/min). No supportive care was given to mice after irradiation. Approximately 100 μL of blood was collected by retro-orbital blood collection for complete blood cell counts at various time points for 100 days.

The conditions of data set [2]: C57/BL6, mouse, in vivo.
Method: Mice were sacrificed at the indicated time and major organs were collected and weighed. ^64Cu counting was done as soon as the organs were collected and ^3H counting was measured 5 days after mice were sacrificed. The % ID/g was calculated by measuring weight and time corrected measurement of radioactivity. n=5 per group.
For biodistribution studies, approximately 5.5 MBg of [^64Cu]-DOTA-Bz-DSPE-labeled liposome and 370 kBq of ^3H-GT3 incorporated liposome was intravenously administered to C57/BL6 athymic nude mice (n=5 per group) via tail vein injection. Mice were sacrificed at 24 or 48 h after injection and major organs were collected and placed in pre-weighed culture tubes or Eppendorf tubes. To collect bone marrow, the femur was dipped into liquid nitrogen and one of the epiphyses was carefully removed. A 30 mL syringe with gauge 30½ needles was inserted into one end of the femur; air was blown and bone marrow was collected in the same tubes for radioactivity counting in a gamma counter (PerkinElmer, Inc., Waltham, Mass.). For ^3H activity measurement, major organs were collected in pre-weighed scintillation vials and 500 uL of Soluene®-350 were added. After overnight incubation at 37° C., 4.5 mL of Ecoscint A were added, mixed well, and counted in scintillation counter. Data were presented as percent injected dose per gram (% ID/g) of tissue.

Take `CC(C)=CCC/C(C)=C/CC/C(C)=C/CC[C@]1(C)CCc2cc(O)c(C)c(C)c2O1` [GT3, (2R)-2,7,8-trimethyl-2-[(3E,7E)-4,8,12-trimethyltrideca-3,7,11-trienyl]-3,4-dihydrochromen-6-ol]: the “effect on tumor response to focal radiation” value with MDA-MB-468 tumor was “does not protect nor sensitize”. Besides, the “platelet counts compared with untreated group” value in data set [1] (4 Gy TBI) is “no significant differences”. Besides, the “recovery of WBC and lymphocytes compared with untreated group” value in data set [1] (4 Gy TBI, 10 mg/kg GT3 liposomes i.v. 24 h before or after TBI) is “faster and more complete”. Moreover, the “recovery of WBC and lymphocyte counts” value in data set [1] (day 43 after 4 Gy TBI, 10 mg/kg GT3 liposomes i.v.) stood at 100%.

As for `CC(C)=CCC/C(C)=C/CC/C(C)=C/CC[C@]1(C)CCc2cc(O)c(C)c(C)c2O1` [[^3H]-GT3], the “loss of active drug during the tissue targeting process” value in data set [2] is on record as “approximately 50%”. Besides, the “Biodistribution, Marrow” value in data set [2] (24 h) is listed as 4.28±1.57 % ID/g; in data set [2] (48 h), 7.44±2.81 % ID/g. The “Biodistribution, Spleen” value in data set [2] (24 h) came out at 7.95±1.63 % ID/g; in data set [2] (48 h), 8.26±1.86 % ID/g.

These data come from patent publication US20220023450A1, “BONE MARROW-, RETICULOE[…]-, AND/OR LYMPH NODE-TARGETED RA[…] AND METHODS OF THEIR DIAGNOSTIC AND […] USE” (Memorial Sloan Kettering Cancer Center, priority 2018, published 2022).
